Assay results taken from patent US20110112010A1, “OCTANOIC ACID FORMULATIONS AND METHODS OF TREATMENT USING THE SAME” (The Government of the United States of America, as …, priority 2008, published 2011).
Values belong to the compound of their own block, whether it stands above or below them.

Tests used:
Essential Tremor [1] = conditions: humans with Essential Tremor; Bushara 2004, Shill 2004; cited from earlier work
Essential Tremor [2] = assay: Tremor assessment by digitized Archimedes spirals after oral 1-octanol; format: in vivo, human
Protocol: Subjects: All subjects underwent a routine medical screening and neurological examination. A structured ethanol challenge was carried out to confirm tremors were ethanol-responsive. Subjects were videotaped at 0, 15, 30, 45, 60, and 75-minutes after receiving two servings (50-ml each) of 40% ethanol along with digitized spirography measures. Ethanol-responsive subjects then completed either a dose titration (1-64 mg/kg) inpatient study or a fixed dose (64 mg/kg) inpatient study to characterize the pharmacokinetics of 1-octanol and its predicted primary metabolite octanoic acid (OA). Tremor Assessment: To assess efficacy, subjects drew Archimedes spirals at fixed intervals on a digitizing tablet with an overlaid spiral guide. We used in-house analysis software to process the data before conducting a fast Fourier transform of tremor velocity to obtain our frequency and power measures.

[3] = Pharmacokinetics of oral 1-octanol and its metabolite octanoic acid in plasma of adults with Essential Tremor; format: in vivo, human
Protocol: Subjects: All subjects underwent a routine medical screening and neurological examination. A structured ethanol challenge was carried out to confirm tremors were ethanol-responsive. Subjects were videotaped at 0, 15, 30, 45, 60, and 75-minutes after receiving two servings (50-ml each) of 40% ethanol along with digitized spirography measures. Ethanol-responsive subjects then completed either a dose titration (1-64 mg/kg) inpatient study or a fixed dose (64 mg/kg) inpatient study to characterize the pharmacokinetics of 1-octanol and its predicted primary metabolite octanoic acid (OA). Plasma Sampling: During the inpatient study, subjects received oral 1-octanol followed by collection of plasma samples at the following intervals: 5, 20, 45, 70, 100, 130, 160, 210, 270 and 360-minutes post-dose. Samples were processed then batch analyzed using high-performance liquid chromatography and mass spectrometry methods to measure concentrations of 1-octanol and OA.

[4] = test system: hereditary essential tremor; conditions: patients with hereditary essential tremor; Brain 1994, 117: 805-824; cited from earlier work
harmaline-induced tremor = assay: Harmaline mouse model of essential tremor (motion power percentage); format: in vivo; conditions: male ICR mice, harmaline 20 mg/kg s.c., octanoic acid i.p. in PEG-300
Excerpt: The harmaline model of essential tremor: Harmaline is a beta-carboline alkaloid that produces action tremor on systemic administration to mammals (see Llinas et al., Exp Brain Res 18:69 (1973)). […] Harmaline thus acts within the olivo-cerebellar system to produce tremor and can be used as a model to assess potential ET therapies (see Martin et al., Mov. Disord. 20:298 (2005)).
Animals: Male ICR mice (20-24 g) from Harlan (Indianapolis, Ind.) were housed in groups in standard cages with ad libitum access to commercial rodent diet and water.
Tremor measurement: Motion activity was measured with a Convuls-1 Replacement Sensing Platform model 1335-1A (Columbus Instruments, Columbus, Ohio), a metal platform with a load sensor beneath it, that is connected to a Grass model P511 AC amplifier (Grass Instruments, West Warwick, R.I.) with 1 and 70 Hz filter settings. Digitally recorded motion power was analyzed using Cambridge converter and software. Data was sampled at 128 Hz. The total motion power for each 20-minute epoch was calculated between 0 and 34 Hz (full motion spectrum) and between 10 and 16 Hz (the harmaline tremor frequency bandwidth); and the motion power percentage (10-16 Hz power)/(0-34 Hz power)×100 then calculated. This percentage is expressed as motion power percentage (MPP). […]

Structure (SMILES): CCCCCCCCO [1-octanol]
safety and tremor suppression in early human studies (Essential Tremor [1]): safe and effective at tremor suppression
peak tremor reduction from baseline (Essential Tremor [2]; at 120 minutes post-dose): 42%
persistence of tremor-reducing effect (Essential Tremor [2]; last timepoint 360 minutes): > 360 min
1-octanol concentration as a function of oral dose ([3]; oral 1-octanol dose titration 1-64 mg/kg): remained at very low basal levels until the 64 mg/kg dose

Structure (SMILES): CCO [ethanol]
proportion of patients in whom treatment was effective [4]: 50%

OA plasma half-life ([3]; human, in vivo, po): approximately 74 minutes
earliest time at which OA plasma concentrations were detectable post-dose ([3]; human, in vivo, po): 5 min
persistence of OA plasma levels following administration ([3]; human, in vivo, po): up to 6 hours
Structure (SMILES): CCCCCCCC(=O)O [octanoic acid]
suppression of harmaline-induced tremor (harmaline-induced tremor): suppressed harmaline-induced tremor in a dose dependent fashion
